Source: ChEMBL document CHEMBL3991947, “D-serine transporter inhibitors as pharmaceutical compositions for the treatment of central nervous system disorders” (2014)

The compounds below were run against T1, Amino acid transporter (Rattus norvegicus) (UniProt Q9Z1J7) (assay: Inhibition of ASCT2 mediated [3H]-D-serine uptake in rat hippocampal astrocytes at 1 mM after 5 mins by beta counting analysis).
T1 sequence (whole entry): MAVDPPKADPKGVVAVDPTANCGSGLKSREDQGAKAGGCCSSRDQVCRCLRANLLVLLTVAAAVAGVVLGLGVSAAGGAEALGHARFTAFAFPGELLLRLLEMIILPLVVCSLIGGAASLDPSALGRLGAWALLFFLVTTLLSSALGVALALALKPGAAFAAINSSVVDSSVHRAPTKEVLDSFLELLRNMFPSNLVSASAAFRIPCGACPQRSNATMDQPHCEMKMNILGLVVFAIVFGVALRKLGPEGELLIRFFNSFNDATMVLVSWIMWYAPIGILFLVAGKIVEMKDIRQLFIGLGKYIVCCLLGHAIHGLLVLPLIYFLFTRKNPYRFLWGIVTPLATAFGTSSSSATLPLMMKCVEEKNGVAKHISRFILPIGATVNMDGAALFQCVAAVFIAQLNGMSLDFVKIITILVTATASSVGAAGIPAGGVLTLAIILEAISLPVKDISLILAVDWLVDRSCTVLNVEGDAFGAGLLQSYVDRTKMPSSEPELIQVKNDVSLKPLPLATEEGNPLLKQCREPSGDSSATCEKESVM
Type: cell-based
For `NC(CC(=O)c1ccccc1)C(=O)O` (configuration not stated), the inhibition was over 25%.
Compound `C#CC[C@H]1CN[C@H](C(=O)O)C1` has an inhibition of over 25%.
`N[C@@H](C(=O)O)C1=CCC=CC1` was tested, and the inhibition was over 25%.
In the case of `NC(C(=O)O)c1nnn[nH]1` (configuration not stated), the inhibition was over 25%.
With `O=C(O)[C@@H]1C[C@@H](Cc2ccccc2C(F)(F)F)CN1` the inhibition was over 25%.
In the case of `N[C@@H](Cc1c[nH]c2ccc(F)cc12)C(=O)O`, the inhibition was over 25%.
`NCC(=O)O` gave an inhibition of over 25%.
For `CC(=O)OC[C@H](N)C(=O)O`, the inhibition was over 25%.
In the case of `NC(C(=O)O)C(O)c1cccnc1` (racemic), the inhibition was over 25%.
`NC(C(=O)O)c1ccc2c(c1)OCO2` (configuration not stated) showed an inhibition of over 25%.
For `N[C@H]1CCSC1=O`, the inhibition was over 25%.
With `N[C@@H](CCCc1ccccc1)C(=O)O` the inhibition was over 25%.
`O=C(O)C1C[C@@H](Cc2ccc(F)c(F)c2)CN1` (single isomer, unassigned) gave an inhibition of over 25%.
`NC(C(=O)O)c1ccc(CO)c(O)c1` (configuration not stated) showed an inhibition of over 25%.
`NC(C(=O)O)c1cccc(F)c1` (configuration not stated) gave an inhibition of over 25%.
With `Cc1ccc(C(N)C(=O)O)cc1Cl` (configuration not stated) the inhibition was over 25%.
`C[C@H](O)[C@@H](N)C(=O)O` was tested, and the inhibition was over 25%.
`O=C(O)C1C[C@@H](Cc2ccc(Br)cc2)CN1` (single isomer, unassigned) showed an inhibition of over 25%.
For `N[C@H](C(=O)O)c1cccc(O)c1`, the inhibition was over 25%.
In the case of `N[C@@H](CS)C(=O)O`, the inhibition was over 25%.
Compound `COC(=O)[C@@H](N)c1ccccc1` has an inhibition of over 25%.
`O=C(O)C(c1ccc(F)cc1)N1CCOCC1` (configuration not stated) was tested, and the inhibition was over 25%.
In the case of `NC(CC(=O)Nc1ccccc1)C(=O)O` (configuration not stated), the inhibition was over 25%.
`N[C@@H](Cc1c[nH]c2ccccc12)C(=O)O` showed an inhibition of over 25%.
`[N-]=[N+]=CC(=O)CC[C@H](N)C(=O)O` gave an inhibition of over 25%.
`O=C(O)[C@@H]1C[C@H](Cc2cccc(Cl)c2)CN1` was tested, and the inhibition was over 25%.
Compound `CC(C)(C)OC(=O)N1C[C@H](C/C=C/c2ccccc2)C[C@H]1C(=O)O` has an inhibition of over 25%.
Compound `NC(C(=O)O)c1ccc2c(c1)OCCO2` (configuration not stated) has an inhibition of over 25%.
Compound `O=C(O)C1C[C@@H](Cc2cccc(F)c2)CN1` (single isomer, unassigned) has an inhibition of over 25%.
`N[C@@H](CCc1ccccc1)C(=O)O` showed an inhibition of over 25%.
In the case of `NC(C(=O)O)c1cc(O)ccc1Cl` (configuration not stated), the inhibition was over 25%.
Compound `O=C(O)[C@@H]1C[C@@H](Cc2ccc3ccccc3c2)CN1` has an inhibition of over 25%.
With `N[C@H](C(=O)O)C1CCCCC1` the inhibition was over 25%.
In the case of `O=C(O)[C@H]1C[C@@H](F)CN1`, the inhibition was over 25%.
With `N[C@@H](Cc1ccc2ccccc2c1)C(=O)O` the inhibition was over 25%.
With `C#CCC[C@H](N)C(=O)O` the inhibition was over 25%.
Work on `O=C(O)[C@@H]1Cc2ccccc2CN1` yielded an inhibition of over 25%.
Compound `N[C@@H](CC1CC1)C(=O)O` has an inhibition of over 25%.
In the case of `C=CC[C@H]1CNC(C(=O)O)C1` (single isomer, unassigned), the inhibition was over 25%.
Compound `N[C@H](CCO)C(=O)O` has an inhibition of over 25%.
`O=C(O)[C@@H]1C[C@H](Cc2ccccc2)CN1` showed an inhibition of over 25%.
`NC(C(=O)O)c1cc(O)cc(O)c1` (configuration not stated) was tested, and the inhibition was over 25%.
For `O=C(O)C1Cc2c([nH]c3ccccc23)CN1` (configuration not stated), the inhibition was over 25%.
`N[C@@H](Cn1oc(=O)[nH]c1=O)C(=O)O` showed an inhibition of over 25%.
With `NC(C(=O)O)C(O)c1cccs1` (racemic) the inhibition was over 25%.
In the case of `N[C@H](C(=O)O)c1cccc2ccccc12`, the inhibition was over 25%.
Work on `CCC[C@H](N)C(=O)O` yielded an inhibition of over 25%.
Work on `O=C(O)C1C[C@@H](Cc2ccc(I)cc2)CN1` (single isomer, unassigned) yielded an inhibition of over 25%.
With `O=C(O)C1C[C@@H](Cc2ccc(Cl)cc2Cl)CN1` (single isomer, unassigned) the inhibition was over 25%.
`N#Cc1cccc(C[C@H]2CNC(C(=O)O)C2)c1` (single isomer, unassigned) gave an inhibition of over 25%.
Compound `N[C@@H](CCC(=O)Nc1ccc2ccccc2c1)C(=O)O` has an inhibition of over 25%.
Work on `NC(C(=O)O)C12CC3CC(CC(C3)C1)C2` (configuration not stated) yielded an inhibition of over 25%.
Compound `O=C(O)C1C[C@@H](Cc2ccc(Cl)cc2)CN1` (single isomer, unassigned) has an inhibition of over 25%.
Work on `Nc1ccccc1C(=O)C[C@H](N)C(=O)O` yielded an inhibition of over 25%.
Compound `NC(C(=O)O)c1ccc(F)c(Cl)c1` (configuration not stated) has an inhibition of over 25%.
For `NC1(C(=O)O)CCCC1`, the inhibition was over 25%.
`NC(C(=O)O)c1ccc(C(=O)O)c(O)c1` (configuration not stated) showed an inhibition of over 25%.
`NC1(C(=O)O)CC1` gave an inhibition of over 25%.
`N[C@H](C(=O)O)c1ccco1` gave an inhibition of over 25%.
Compound `Nc1ccccc1C(=O)C[C@@H](N)C(=O)O` has an inhibition of over 25%.
With `C[C@@H](O)[C@H](N)C(=O)O` the inhibition was over 25%.
Compound `NC(C(=O)O)c1cccc(C(F)(F)F)c1` (configuration not stated) has an inhibition of over 25%.
`O=C(O)C1C[C@@H](Cc2ccc(Cl)c(Cl)c2)CN1` (single isomer, unassigned) showed an inhibition of over 25%.
For `NC(C(=O)O)c1ccccc1Cl` (configuration not stated), the inhibition was over 25%.
`C[C@@H](O)[C@@H](N)C(=O)O` (racemic) gave an inhibition of over 25%.
`[N-]=[N+]=NCC[C@H](N)C(=O)O` was tested, and the inhibition was over 25%.
In the case of `N[C@@H](Cc1ccc(O)c(O)c1)C(=O)O`, the inhibition was over 25%.
Work on `NC(Cc1c[nH]c2cc(F)ccc12)C(=O)O` (configuration not stated) yielded an inhibition of over 25%.
`O=C(O)[C@@H]1CN1` gave an inhibition of over 25%.
For `CC(C)[C@H](N)C(=O)O`, the inhibition was over 25%.
`CCSC[C@H](N)C(=O)O` showed an inhibition of over 25%.
With `Nc1c(O)cccc1C(=O)CC(N)C(=O)O` (configuration not stated) the inhibition was over 25%.
With `NC(Cc1c[nH]c2cccc(F)c12)C(=O)O` (configuration not stated) the inhibition was over 25%.
For `O=C(O)[C@@H]1C[C@H](Oc2cccc(Cl)c2)CN1`, the inhibition was over 25%.
Work on `NC(=O)C[C@@H](N)C(=O)O` yielded an inhibition of over 25%.
`CSCC[C@H](N)C(=O)O` gave an inhibition of over 25%.
`N[C@@H](Cc1c[nH]c2ccc(O)cc12)C(=O)O` was tested, and the inhibition was over 25%.
`N#Cc1ccccc1C[C@H]1CNC(C(=O)O)C1` (single isomer, unassigned) gave an inhibition of over 25%.
In the case of `NC(C(=O)O)c1cccc([N+](=O)[O-])c1` (configuration not stated), the inhibition was over 25%.
`COCC(N)C(=O)O` (racemic) was tested, and the inhibition was over 25%.
With `O=C(O)C1C[C@@H](Cc2cccc3ccccc23)CN1` (single isomer, unassigned) the inhibition was over 25%.
Work on `CSC[C@H](N)C(=O)O` yielded an inhibition of over 25%.
`CCOC(=O)CC(N)C(=O)O` (configuration not stated) was tested, and the inhibition was over 25%.
`O=C(O)[C@@H]1C[C@@H](F)CN1` showed an inhibition of over 25%.
Compound `N[C@@H](CCO)C(=O)O` has an inhibition of over 25%.
`O=C(Nc1cccc2ccccc12)[C@@H]1C[C@@H](O)CN1` showed an inhibition of over 25%.
For `NC(C(=O)O)C1C2CC3CC(C2)CC1C3` (configuration not stated), the inhibition was over 25%.
In the case of `N[C@@H](CC(=O)OCc1ccccc1)C(=O)O`, the inhibition was over 25%.
For `NC(C(=O)O)c1ccc(O)c(O)c1` (configuration not stated), the inhibition was over 25%.
`CNC(C(=O)O)c1ccc(OC)cc1` (configuration not stated) gave an inhibition of over 25%.
`O=C(/C=C/c1c(C(=O)O)[nH]c2cc(Cl)cc(Cl)c12)Nc1ccccc1` showed an inhibition of over 25%.
Compound `O=C(O)[C@@H]1C[C@@H](c2ccccc2)CN1` has an inhibition of over 25%.
Compound `COC(=O)CC[C@H](N)C(=O)O` has an inhibition of over 25%.
`O=C(O)C1NCc2ccccc21` (configuration not stated) gave an inhibition of over 25%.
Work on `COC[C@H](N)C(=O)O` yielded an inhibition of over 25%.
`NC(C(=O)O)c1ccccc1O` (configuration not stated) showed an inhibition of over 25%.
Work on `CC(C)(S)[C@H](N)C(=O)O` yielded an inhibition of over 25%.
With `NC(C(=O)O)C1CC2C=CC1C2` (configuration not stated) the inhibition was over 25%.
`C=CCC(N)C(=O)O` (configuration not stated) showed an inhibition of over 25%.
With `O=C(O)/C(=C/c1c(C(=O)O)[nH]c2cc(Cl)cc(Cl)c12)c1ccccc1` the inhibition was over 25%.
Compound `N[C@@H](CO)C(=O)Nc1ccc2ccccc2c1` has an inhibition of over 25%.
`O=C(O)C1C[C@@H](Cc2ccsc2)CN1` (single isomer, unassigned) gave an inhibition of over 25%.
